According to PMC8841438 (Clinical and Translational Science, 2021):
Like-named read-outs stand apart in the source and are kept apart here.

Assays:
[1] = no reference given; cited from earlier work
[2] = test system: breast cancer resistance protein; conditions: in vitro; at clinically relevant concentrations; cited from earlier work
[3] = test system: organic anion transporter 3; conditions: in vitro; at clinically relevant concentrations; cited from earlier work
[4] = cited from earlier work
[5] = test system: organic anion transporting polypeptide 1B3; conditions: in vitro; cited from earlier work
[6] = ulcerative colitis phase IIb/III, cited from earlier work
MATE2K [7] = molecular target: T1, MATE2K (Homo sapiens, UniProt Q86VL8); assay: In vitro transporter inhibition: MATE2K; type: in vitro ADME; conditions: data on file at Gilead Sciences, Inc.
MATE1 [8] = molecular target: T2, MATE1 (Homo sapiens, UniProt Q96FL8); assay: In vitro transporter inhibition: MATE1; type: in vitro ADME; conditions: data on file at Gilead Sciences, Inc.
T2 sequence (Q96FL8 1-570): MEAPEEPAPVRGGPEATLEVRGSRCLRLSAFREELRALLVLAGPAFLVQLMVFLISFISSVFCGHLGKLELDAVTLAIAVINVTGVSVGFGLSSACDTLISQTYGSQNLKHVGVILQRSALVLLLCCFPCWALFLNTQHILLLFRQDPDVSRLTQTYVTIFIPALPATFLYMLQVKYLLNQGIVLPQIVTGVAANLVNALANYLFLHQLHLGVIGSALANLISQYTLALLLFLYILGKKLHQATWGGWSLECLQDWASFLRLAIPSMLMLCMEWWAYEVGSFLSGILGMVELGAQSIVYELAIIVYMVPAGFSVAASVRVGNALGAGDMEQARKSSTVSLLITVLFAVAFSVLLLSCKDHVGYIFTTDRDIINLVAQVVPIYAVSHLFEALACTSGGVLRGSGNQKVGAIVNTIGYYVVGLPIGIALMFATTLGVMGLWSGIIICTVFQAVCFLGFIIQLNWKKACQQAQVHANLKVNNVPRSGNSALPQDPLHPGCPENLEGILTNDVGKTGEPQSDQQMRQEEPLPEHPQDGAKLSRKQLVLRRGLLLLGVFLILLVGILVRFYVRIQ

[9] = type: in vivo, human
bile salt export pump = conditions: in vitro; at clinically relevant concentrations; cited from earlier work
[10] = 200 mg and 100 mg once‐daily; patients with active rheumatoid arthritis; phase III; cited from earlier work
[11] = molecular target: T3, organic cation transporter 2 (OCT2) (Homo sapiens, UniProt O15244); conditions: in vitro; cited from earlier work
T3 sequence (O15244 1-555): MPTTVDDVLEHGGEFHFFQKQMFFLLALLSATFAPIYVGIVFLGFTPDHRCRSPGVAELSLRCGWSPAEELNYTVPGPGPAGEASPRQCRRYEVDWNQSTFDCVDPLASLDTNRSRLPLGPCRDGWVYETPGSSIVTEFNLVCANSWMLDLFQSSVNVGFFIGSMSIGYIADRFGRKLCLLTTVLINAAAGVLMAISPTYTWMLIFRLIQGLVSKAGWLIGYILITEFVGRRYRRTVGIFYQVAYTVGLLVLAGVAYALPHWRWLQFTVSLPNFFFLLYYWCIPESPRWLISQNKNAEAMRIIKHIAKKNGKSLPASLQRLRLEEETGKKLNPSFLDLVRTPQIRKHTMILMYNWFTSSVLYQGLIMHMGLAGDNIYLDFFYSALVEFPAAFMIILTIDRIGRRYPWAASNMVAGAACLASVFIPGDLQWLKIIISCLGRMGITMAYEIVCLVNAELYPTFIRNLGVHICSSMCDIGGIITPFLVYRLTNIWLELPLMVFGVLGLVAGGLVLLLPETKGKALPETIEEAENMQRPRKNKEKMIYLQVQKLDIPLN

MATE2K [12] = molecular target: T1, MATE2K; conditions: in vitro; cited from earlier work
[13] = type: in vivo, human; remark: listed apart in the source
P‐glycoprotein = conditions: in vitro; cited from earlier work
JAK1 = conditions: whole blood and cellular assays; cited from earlier work
Safety assessments = type: in vivo, human; conditions: for subjects with at least one graded laboratory abnormality: majority grade 1 or 2
[14] = test system: human colon carcinoma‐derived (Caco‐2) cells; conditions: no reference given; cited from earlier work
MATE1 [15] = molecular target: T2, MATE1; conditions: in vitro; cited from earlier work
[16] = test system: carboxylesterase 2 (CES2); conditions: cited from earlier work
[17] = test system: organic cation transporter 1; conditions: in vitro; at clinically relevant concentrations; cited from earlier work
[18] = patients with rheumatoid arthritis
[19] = study 1, filgotinib 100 mg with itraconazole 200 mg vs alone
[20] = study 1, filgotinib + itraconazole vs filgotinib alone
[21] = study 2, filgotinib 200 mg after multiple doses of rifampin 600 mg vs alone
[22] = study 2, filgotinib + rifampin vs filgotinib alone
[23] = study 3, filgotinib treatment period

T1 sequence (Q86VL8 1-566 isoform Q86VL8-3): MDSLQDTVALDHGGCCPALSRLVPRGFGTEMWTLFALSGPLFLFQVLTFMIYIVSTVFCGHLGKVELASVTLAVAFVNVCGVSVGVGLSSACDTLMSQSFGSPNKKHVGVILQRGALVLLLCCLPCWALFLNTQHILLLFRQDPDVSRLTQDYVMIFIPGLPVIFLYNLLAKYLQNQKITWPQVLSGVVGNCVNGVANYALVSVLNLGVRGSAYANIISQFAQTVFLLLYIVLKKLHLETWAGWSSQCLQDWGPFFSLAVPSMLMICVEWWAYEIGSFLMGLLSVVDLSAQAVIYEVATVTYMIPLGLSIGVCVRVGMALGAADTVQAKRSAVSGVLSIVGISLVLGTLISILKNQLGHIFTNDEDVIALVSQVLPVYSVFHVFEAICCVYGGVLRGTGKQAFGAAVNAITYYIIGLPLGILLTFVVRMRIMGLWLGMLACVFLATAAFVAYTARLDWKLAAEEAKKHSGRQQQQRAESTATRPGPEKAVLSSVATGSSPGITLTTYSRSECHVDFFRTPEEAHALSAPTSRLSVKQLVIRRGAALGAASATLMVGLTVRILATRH

## O=C(Nc1nc2cccc(-c3ccc(CN4CCS(=O)(=O)CC4)cc3)n2n1)C1CC1 [Filgotinib]
[1]
  permeability (BCS): high permeability
  solubility (BCS): low solubility
[2]
  inhibition of breast cancer resistance protein: not inhibitors
[3]
  inhibition of organic anion transporter 3: not inhibitors
[4]
  administered dose eliminated in the urine as filgotinib and its metabolites: Approximately 87%
  dose eliminated in the feces: about 15%
[4]; filgotinib: unchanged
  orally administered dose recovered in feces as the named species: ~5%
  orally administered dose recovered in urine as the named species: ~ 9%
[5]
  inhibition of OATP1B3: inhibited
[6]; 100 mg dose
  primary end point in the induction studies: did not meet the primary end point
[6]; 200 mg dose
  primary end points (clinical remission at week 10 and week 58): met all the primary end points
MATE2K [7]; in vitro data
  inhibition of MATE2K (in words): may inhibit
MATE2K [7]; [18]
  ratio of maximum unbound plasma concentration over in vitro IC50 against MATE2K: 0.44
MATE1 [8]; in vitro data
  inhibition of MATE1 (in words): may inhibit
MATE1 [8]; [18]
  ratio of maximum unbound plasma concentration over in vitro IC50 against MATE1: 0.26
[9]; human, plasma, oral
  Tmax: 1 h
  half-life: 6.26 h
[9]; human, plasma, oral, 100 mg
  AUC(0-inf): 2190 ng·h/mL
  AUC(0-t): 2170 ng·h/mL
  Cmax: 756 ng/mL
  Tmax: 1 h
  half-life: 7.4 h
[9]; [19]
  increase in AUCinf by itraconazole: 45%
  increase in C max by itraconazole: 64%
[9]; [20]
  AUCinf %GLSM ratio (90% CI): 145 (133, 157) %
  AUClast %GLSM ratio (90% CI): 145 (133, 158) %
  C max %GLSM ratio (90% CI): 164 (129, 208) %
[9]; study 1, filgotinib: Tmax, t1/2, GS‐829845: C max, AUCinf, T max, t 1/2
  effect of itraconazole on pharmacokinetic parameters (in words): did not affect
[9]; study 1, single filgotinib 100 mg alone, fasting, mean (%CV), N = 13
  CL/F: 48.6 (25.0) L/h
Bile salt export pump
  inhibition of bile salt export pump: not inhibitors
[10]
  signs and symptoms and physical function: significantly improved
[11]
  inhibition of OCT2: inhibited
MATE2K [12]
  inhibition of MATE2K: inhibited
[13]; human, plasma, oral
  Tmax: 1.5 h
  half-life: 7.7 h
[13]; human, plasma, oral, 200 mg
  AUC(0-inf): 6960 ng·h/mL
  AUC(0-t): 6980 ng·h/mL
  Cmax: 2190 ng/mL
  Tmax: 1 h
  half-life: 8.4 h
[13]; [21]
  reduction in AUCinf by rifampin: 27%
  reduction in C max by rifampin: 26%
[13]; [22]
  AUCinf %GLSM ratio (90% CI): 72.7 (69.1, 76.5) %
  AUClast %GLSM ratio (90% CI): 72.7 (69.1, 76.5) %
[13]; study 2, filgotinib: T max and t 1/2, GS‐829845: Tmax
  effect of rifampin on T max and t 1/2 (in words): similar
[13]; study 2, single filgotinib 200 mg alone, mean (%CV), N = 14
  CL/F: 30.1 (21.0) L/h
P‐glycoprotein
  substrate of P‐glycoprotein: substrates
JAK1
  potency on JAK1 over JAK2, JAK3, tyrosine kinase 2, and other kinases: greater than five‐fold higher potency
Safety assessments; all three studies, alone or with the co‐administered drugs
  tolerability (in words): generally well‐tolerated
Safety assessments; study 1, by treatment period, all grade 1, not related to study drug
  subjects with AEs: 7.7%
Safety assessments; study 1, by treatment period
  subjects with at least one graded laboratory abnormality: 15%
Safety assessments; study 2, by treatment period
  subjects with at least one graded laboratory abnormality: 14%
Safety assessments; study 3, by treatment period, all grade 1
  subjects with AEs: 8.3%
Safety assessments; [23]
  subjects with grade 3 decreased lymphocytes and neutrophils: 8.3%
  subjects with grade 3 laboratory abnormalities: 25%
  subjects with grade 3 occult blood in urine: 17%
  subjects with at least one graded laboratory abnormality: 75%
Safety assessments; study 3, one subject, by treatment phase
  AE considered related to study drug (kind of AE): headache
[14]
  efflux in Caco‐2 cells: active efflux
MATE1 [15]
  inhibition of MATE1: inhibited
[16]
  metabolism by CES2 to form GS‐829845 (in words): primarily metabolized
[17]
  inhibition of organic cation transporter 1: not inhibitors
